Laboratory results: article PMC5838219 (2018)

Tests used:
[1] = test system: dGsw^121,caged (RNA, riboswitch, (S)-NPE photocage at C4 position of nucleobases of U108, U110 and U112) AAUGAAUAUAAAAGAAACUUAUACAGGGUAGCAUAAUGGGCUACUGACCCCGCCUUCAAACCUAUUUGGAGACUAUAAGUGAAAAACCACUCUUUAAUUAUUAAAGUUUCUUUUUAUGUC; assay: NMR (1H,15N-TROSY, imino protons); conditions: 50 mM KCl, 25 mM K phosphate, 6 eq. Mg2+; pH 6.2, 298 K; 100 µM RNA, 2 eq. ligand; before photolysis
[2] = test system: dGsw^121 (RNA, riboswitch) AAUGAAUAUAAAAGAAACUUAUACAGGGUAGCAUAAUGGGCUACUGACCCCGCCUUCAAACCUAUUUGGAGACUAUAAGUGAAAAACCACUCUUUAAUUAUUAAAGUUUCUUUUUAUGUC; assay: NMR (1H,15N-TROSY, imino protons); conditions: 50 mM KCl, 25 mM K phosphate, 6 eq. Mg2+; pH 6.2, 298 K; 100 µM RNA, 2 eq. ligand; after photolysis; antiterminator folds only to ~80%

binding [1]: yes
binding [2]: yes
Compound: Nc1nc2c(ncn2[C@H]2C[C@H](O)[C@@H](CO)O2)c(=O)[nH]1
